Source: DBAASP
In brackets after ≈: the same amount, converted by molar mass. Several values for one entry are separate records, joined by “and”; a condition that tells them apart may be missing. Equal values may be shown once.

Key:
Experiment in all cases: ≥ marks a high value that may be exact or a test limit, other limits are often not marked, values filed in µg/mL are converted to µM
Escherichia coli = tested on: Escherichia coli
Bacillus cereus = tested on: Bacillus cereus
Pseudomonas aeruginosa = tested on: Pseudomonas aeruginosa
Staphylococcus aureus = tested on: Staphylococcus aureus
[1] = tested on: Escherichia coli ATCC 25922
[2] = tested on: Staphylococcus epidermidis ATCC 12228
[3] = tested on: Staphylococcus aureus ATCC 25923
[4] = tested on: Pseudomonas aeruginosa ATCC 27853

Row | SMILES | MIC (Escherichia coli) | MIC (Pseudomonas aeruginosa) [µM] | MIC (Staphylococcus aureus) [µM] | other results
1 | CC[C@H](C)[C@H](NC(=O)CNC(=O)[C@H](C)NC(=O)[C@H](Cc1ccc(O)cc1)NC(=O)[C@@H](NC(=O)[C@H](CC(C)C)NC(=O)[C@H](C)N)C(C)C)C(=O)N[C@@H](CCCCN)C(=O)N[C@@H](CCCCN)C(=O)N[C@H](C(=O)N[C@@H](C)C(=O)N[C@@H](Cc1ccccc1)C(=O)N[C@@H](CC(C)C)C(=O)N[C@@H](CCCCN)C(=O)N[C@H](C(=O)N[C@@H](CCC(N)=O)C(=O)N[C@@H](CCCCN)C(=O)N[C@@H](CS)C(=O)N[C@@H](CC(=O)O)C(=O)NCC(=O)O)C(C)C)[C@@H](C)O [ALVYAGIKKTAFLKVQKCDG] | > 119 µM | – | – | MIC (Bacillus cereus): ≥ 119 µM
2 | CSCC[C@H](NC(=O)[C@@H](N)Cc1ccccc1)C(=O)N[C@@H](CCCCN)C(=O)N[C@H](C(=O)N[C@@H](CC(C)C)C(=O)N[C@@H](C)C(=O)N[C@H](C(=O)N[C@@H](Cc1ccccc1)C(=O)NCC(=O)N[C@@H](CO)C(=O)N[C@H](C(=O)N[C@H](C(=O)N[C@H](C(=O)N[C@@H](CO)C(=O)N[C@@H](C)C(=O)N1CCC[C@H]1C(=O)N[C@@H](CCCCN)C(=O)N[C@@H](C)C(=O)N[C@@H](CO)C(=O)N[C@@H](CCCCN)C(=O)O)[C@@H](C)O)C(C)C)C(C)C)C(C)C)C(C)C [FMKVLAVFGSVVTSAPKASK] | > 124 µM | – | – | MIC (Bacillus cereus): ≥ 124 µM
3 | CSCC[C@H](NC(=O)[C@H](C)NC(=O)[C@H](CCC(=O)O)NC(=O)CNC(=O)[C@@H](NC(=O)[C@H](Cc1ccccc1)NC(=O)[C@H](C)NC(=O)[C@H](CCCCN)NC(=O)CNC(=O)[C@H](Cc1ccccc1)NC(=O)[C@H](CCCN=C(N)N)NC(=O)[C@H](CCCCN)NC(=O)[C@H](C)NC(=O)[C@H](CO)NC(=O)[C@H](Cc1cnc[nH]1)NC(=O)[C@H](CC(C)C)NC(=O)[C@H](Cc1ccccc1)NC(=O)[C@H](CCCCN)NC(=O)CNC(=O)[C@H](CC(C)C)NC(=O)CN)C(C)C)C(=O)N[C@@H](CC(N)=O)C(=O)N[C@@H](CO)C(N)=O [GLGKFLHSAKRFGKAFVGEAMNS] | 75 µM (≈ 184 µg/mL) | > 75 | > 75 | –
4 | CC[C@H](C)[C@H](N)C(=O)N[C@@H](CC(N)=O)C(=O)N[C@@H](Cc1c[nH]c2ccccc12)C(=O)N[C@@H](CCCCN)C(=O)N[C@@H](CCCCN)C(=O)N[C@H](C(=O)N[C@@H](C)C(=O)N[C@@H](CO)C(=O)N[C@H](C(=O)NCC(=O)N[C@@H](CCCCN)C(=O)N[C@@H](CCC(=O)O)C(=O)N[C@H](C(=O)N[C@@H](CC(C)C)C(=O)N[C@@H](CCCCN)C(=O)N[C@@H](C)C(=O)N[C@@H](CC(C)C)C(N)=O)C(C)C)[C@@H](C)CC)[C@@H](C)CC [INWKKIASIGKEVLKAL] | 7.3 µM and 5 µM and 2.5 µM | 86.6 (≈ 165 µg/mL) | 25.8 (≈ 49.3 µg/mL) | –
5 | CC[C@H](C)[C@H](NC(=O)[C@H](CCCCN)NC(=O)[C@H](C)NC(=O)CNC(=O)[C@@H](NC(=O)[C@H](CCCCN)NC(=O)[C@@H](NC(=O)[C@H](CCCCN)NC(=O)[C@H](C)NC(=O)CNC(=O)[C@H](Cc1c[nH]c2ccccc12)NC(=O)[C@H](CCCCN)NC(=O)[C@@H](NC(=O)[C@H](CCCCN)NC(=O)[C@H](C)NC(=O)CNC(=O)[C@@H](NC(=O)[C@@H](N)CCCCN)[C@@H](C)CC)[C@@H](C)CC)[C@@H](C)CC)[C@@H](C)CC)C(N)=O [KIGAKIKWGAKIKIGAKI] | 4.16 µM (≈ 8 µg/mL) | 4.16 (≈ 8 µg/mL) | 4.16 (≈ 8 µg/mL) | –
6 | CC[C@H](C)[C@H](NC(=O)[C@H](C)NC(=O)CNC(=O)[C@H](CCCCN)NC(=O)[C@@H](NC(=O)[C@H](CCCCN)NC(=O)[C@@H](NC(=O)[C@H](C)NC(=O)CNC(=O)[C@H](CCCCN)NC(=O)[C@H](Cc1c[nH]c2ccccc12)NC(=O)[C@H](CCCCN)NC(=O)[C@@H](NC(=O)[C@H](C)NC(=O)CNC(=O)[C@H](CCCCN)NC(=O)[C@@H](NC(=O)[C@@H](N)CCCCN)[C@@H](C)CC)[C@@H](C)CC)[C@@H](C)CC)[C@@H](C)CC)C(N)=O [KIKGAIKWKGAIKIKGAI] | 4.16 µM (≈ 8 µg/mL) | 8.32 (≈ 16 µg/mL) | 8.32 (≈ 16 µg/mL) | –
7 | CC[C@H](C)[C@H](NC(=O)[C@H](C)NC(=O)CNC(=O)[C@@H](NC(=O)[C@H](CCCCN)NC(=O)[C@H](CCCCN)NC(=O)[C@@H](NC(=O)[C@H](C)NC(=O)CNC(=O)[C@H](Cc1c[nH]c2ccccc12)NC(=O)[C@H](CCCCN)NC(=O)[C@H](CCCCN)NC(=O)[C@@H](NC(=O)[C@H](C)NC(=O)CNC(=O)[C@@H](NC(=O)[C@H](CCCCN)NC(=O)[C@@H](N)CCCCN)[C@@H](C)CC)[C@@H](C)CC)[C@@H](C)CC)[C@@H](C)CC)C(N)=O [KKIGAIKKWGAIKKIGAI] | 66.5 µM (≈ 128 µg/mL) | 66.5 (≈ 128 µg/mL) | > 133 | –
8 | CC[C@H](C)[C@H](NC(=O)[C@H](CCCCN)NC(=O)[C@@H](NC(=O)[C@@H](NC(=O)[C@H](Cc1ccc(O)cc1)NC(=O)[C@@H](NC(=O)[C@@H](N)CCCCN)C(C)C)C(C)C)C(C)C)C(=O)N[C@@H](C)C(=O)N[C@H](C(=O)N1CCC[C@H]1C(=O)N[C@@H](CS)C(=O)N[C@@H](Cc1ccccc1)C(=O)N1CCC[C@H]1C(=O)N[C@@H](CCCCN)C(=O)N[C@@H](CO)C(=O)N[C@@H](C)C(=O)N[C@@H](CCCN=C(N)N)C(=O)N[C@@H](CO)C(=O)N[C@H](C(=O)N[C@@H](CO)C(=O)O)C(C)C)C(C)C [KVYVVKIAVPCFPKSARSVS] | > 118 µM | – | – | MIC (Bacillus cereus): ≥ 118 µM
9 | CC[C@H](C)[C@H](NC(=O)[C@H](C)NC(=O)[C@H](CCCCN)NC(=O)[C@H](CC(C)C)NC(=O)[C@H](C)NC(=O)[C@@H](NC(=O)[C@H](Cc1cnc[nH]1)NC(=O)[C@H](C)NC(=O)[C@@H](NC(=O)[C@@H](NC(=O)[C@H](CCCCN)NC(=O)[C@H](CCCCN)NC(=O)[C@H](C)NC(=O)[C@H](CO)NC(=O)[C@H](CCCCN)NC(=O)[C@H](Cc1ccccc1)NC(=O)[C@@H](NC(=O)[C@H](CCCCN)NC(=O)[C@H](C)NC(=O)[C@H](Cc1ccccc1)NC(=O)[C@H](CO)NC(=O)[C@H](CCCCN)NC(=O)[C@H](Cc1c[nH]c2ccccc12)NC(=O)[C@H](CCCCN)NC(C)=O)[C@@H](C)O)[C@@H](C)O)C(C)C)[C@@H](C)O)C(=O)N[C@@H](CO)C(=O)N[C@@H](CO)C(N)=O [KWKSFAKTFKSAKKTVAHTALKAISS] | – | – | – | MIC [1]: 125 µM (≈ 363 µg/mL); MIC [2]: 125 µM (≈ 363 µg/mL); MIC [3]: 125 µM (≈ 363 µg/mL); MIC [4]: 125 µM (≈ 363 µg/mL)
10 | CC[C@H](C)[C@H](NC(=O)[C@H](Cc1ccccc1)NC(=O)[C@H](CO)NC(=O)[C@H](CCCCN)NC(=O)[C@H](Cc1c[nH]c2ccccc12)NC(=O)[C@@H](N)CCCCN)C(=O)N[C@@H](CCCCN)C(=O)N[C@@H](CCCCN)C(=O)N[C@@H](CC(C)C)C(=O)N[C@H](C(=O)N[C@@H](CO)C(=O)N[C@@H](CCCCN)C(=O)N[C@@H](Cc1ccccc1)C(=O)N[C@@H](CC(C)C)C(=O)N[C@@H](Cc1cnc[nH]1)C(=O)N[C@@H](CO)C(=O)N[C@@H](C)C(=O)N[C@@H](CCCCN)C(=O)N[C@@H](CCCCN)C(=O)N[C@@H](CC(N)=O)C(N)=O)[C@@H](C)O [KWKSFIKKLTSKFLHSAKKN] | – | 2.58 (≈ 6.25 µg/mL) | – | –
11 | CC(C)C[C@H](NC(=O)[C@H](CCCCN)NC(=O)[C@H](Cc1ccccc1)NC(=O)[C@@H](NC(=O)[C@H](C)NC(=O)[C@@H]1CCCN1C(=O)[C@@H](N)CC(C)C)C(C)C)C(=O)N[C@@H](C)C(=O)N[C@@H](CO)C(=O)N[C@@H](CCCCN)C(=O)N[C@H](C(=O)N[C@@H](Cc1ccccc1)C(=O)N1CCC[C@H]1C(=O)N[C@@H](C)C(=O)N[C@H](C(=O)N[C@@H](Cc1ccc(O)cc1)C(=O)N[C@@H](CS)C(=O)N[C@@H](CCCCN)C(=O)N[C@@H](C)C(=O)N[C@@H](CO)C(=O)O)C(C)C)C(C)C [LPAVFKLASKVFPAVYCKAS] | 59.8 µM (≈ 128 µg/mL) | – | – | MIC (Bacillus cereus): ≥ 120 µM
12 | CC[C@H](C)[C@H](NC(=O)[C@H](Cc1c[nH]c2ccccc12)NC(=O)[C@H](CCCN=C(N)N)NC(=O)[C@H](CCC(N)=O)NC(=O)[C@@H](NC(=O)[C@H](Cc1c[nH]c2ccccc12)NC(=O)[C@H](CCCN=C(N)N)NC(=O)[C@@H](N)CCCN=C(N)N)C(C)C)C(=O)N[C@@H](CCCN=C(N)N)C(=O)N[C@@H](CCCN=C(N)N)C(=O)N[C@@H](Cc1c[nH]c2ccccc12)C(=O)N[C@@H](CCCN=C(N)N)C(=O)N[C@@H](CCCCN)C(=O)N[C@@H](Cc1c[nH]c2ccccc12)C(=O)N[C@H](C(=O)O)C(C)C [RRWVQRWIRRWRKWV] | – | 20 (≈ 45.4 µg/mL) | 20 (≈ 45.4 µg/mL) | –
13 | CC[C@H](C)[C@H](NC(=O)CNC(=O)[C@H](CC(C)C)NC(=O)[C@@H](NC(=O)[C@H](Cc1ccc(O)cc1)NC(=O)[C@@H](NC(=O)[C@H](CO)NC(=O)[C@@H](NC(=O)[C@@H]1CCCN1C(=O)[C@@H](NC(=O)[C@@H](N)CO)C(C)C)[C@@H](C)O)C(C)C)[C@@H](C)O)C(=O)N[C@@H](CCCCN)C(=O)N[C@H](C(=O)N[C@@H](CC(C)C)C(=O)N[C@@H](Cc1c[nH]c2ccccc12)C(=O)N[C@@H](CO)C(=O)N[C@@H](C)C(=O)N[C@@H](Cc1ccc(O)cc1)C(=O)N[C@@H](CCCCN)C(=O)N[C@@H](Cc1cnc[nH]1)C(=O)O)[C@@H](C)CC [SVPTSVYTLGIKILWSAYKH] | – | – | – | MIC [2]: 50 µM (≈ 113 µg/mL)
14 | CC(C)C[C@H](NC(=O)[C@H](Cc1ccc(O)cc1)NC(=O)[C@H](Cc1ccc(O)cc1)NC(=O)CNC(=O)[C@H](Cc1c[nH]c2ccccc12)NC(=O)[C@@H](N)CO)C(=O)NCC(=O)N[C@@H](CCCCN)C(=O)N[C@@H](CCCCN)C(=O)N[C@@H](C)C(=O)N[C@@H](CCCN=C(N)N)C(=O)N[C@@H](Cc1c[nH]c2ccccc12)C(=O)N[C@@H](CC(N)=O)C(=O)N[C@@H](CC(C)C)C(=O)N[C@@H](CCCCN)C(=O)N[C@@H](Cc1cnc[nH]1)C(=O)N1CCC[C@H]1C(=O)N[C@@H](Cc1ccc(O)cc1)C(=O)N[C@H](C(=O)N[C@@H](CCC(N)=O)C(=O)N[C@@H](Cc1ccccc1)C(=O)O)C(C)C [SWGYYLGKKARWNLKHPYVQF] | – | – | – | MIC [2]: > 50 µM
15 | CC(C)C[C@H](NC(=O)[C@H](Cc1ccc(O)cc1)NC(=O)[C@H](Cc1ccc(O)cc1)NC(=O)CNC(=O)[C@H](Cc1c[nH]c2ccccc12)NC(=O)[C@@H](N)CO)C(=O)NCC(=O)O [SWGYYLG] | – | – | – | MIC [2]: > 50 µM
